Assay results published in PMC6039321 (International Journal for Parasitology: Drugs and Drug …, 2018).
Like-named read-outs stand apart in the source and are kept apart here.

Assays:
[1] = system: P. yoelii (17XL); assay: microbe, parasite or virus in culture; assay type: cell-based, Plasmodium yoelii; conditions: for IC50: read-out: OCA P. yoelii IC50
[2] = target: cytbc1 (Plasmodium falciparum, UniProt Q02768); assay: Enzymatic cytbc1 activity; assay type: biochemical, P. falciparum K1 strain; conditions: for % Inhibition Cytbc1 biochemical assay, 5 μM: compound at 5 μM, P. falciparum mitochondria, atovaquone 100% inhibition control
cytbc1, sequence (Q02768 whole entry): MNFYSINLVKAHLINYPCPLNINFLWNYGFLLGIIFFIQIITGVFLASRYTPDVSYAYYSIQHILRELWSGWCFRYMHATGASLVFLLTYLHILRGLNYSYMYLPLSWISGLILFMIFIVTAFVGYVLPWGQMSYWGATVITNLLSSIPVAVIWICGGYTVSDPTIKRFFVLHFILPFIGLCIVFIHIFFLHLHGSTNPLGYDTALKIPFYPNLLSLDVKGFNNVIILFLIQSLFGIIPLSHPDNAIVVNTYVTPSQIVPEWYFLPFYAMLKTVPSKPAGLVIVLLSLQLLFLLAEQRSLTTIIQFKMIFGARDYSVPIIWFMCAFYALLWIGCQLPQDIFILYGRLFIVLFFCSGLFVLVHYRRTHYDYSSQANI

[3] = system: P. falciparum (K1); assay type: cell-based, Plasmodium falciparum
[4] = system: HEK 293 cells; assay type: cell-based, H. sapiens; conditions: for IC50: read-out: OCA HEK 293 IC50, Table 4

**Q.** What does the source list for `O=C1C(O)=C([C@H]2CC[C@H](c3ccc(Cl)cc3)CC2)C(=O)c2ccccc21` [Atovaquone, reference compound]?
**A.** inhibition of oxygen consumption signal in Plasmodium cells ([1]; 1.25 μM atovaquone, 2·10^7 P. yoelii cells (Fig. 2B)): completely inhibited; IC50 ([1]; Plasmodium yoelii): 5 ± 1 nM; inhibition at 0.5 µM ([2]; read-out: % Inhibition Cytbc1 biochemical assay, 0.5 μM): 105 ± 8.26%; inhibition at 5 µM ([2]; read-out: % Inhibition Cytbc1 biochemical assay, 5 μM): 101 ± 9.82%

**Q.** Which “Selectivity (P. falciparum vs H. sapiens)” value [3] does the source give for `N#CC(C#N)=NNc1ccc(OC(F)(F)F)cc1` [FCCP, carbonyl cyanide 4-(trifluoromethoxy)phenylhydrazone] here?
**A.** The value was 1.93.

**Q.** How did the “inhibition of oxygen consumption signal in HEK 293 cells” value ([4]; rotenone at 2.5 μM, 6.5·10^5 HEK 293 cells (Fig. 2A)) turn out when `C=C(C)[C@H]1Cc2c(ccc3c2O[C@@H]2COc4cc(OC)c(OC)cc4[C@@H]2C3=O)O1` [Rotenone, reference compound] was run?
**A.** The value was “completely inhibited”.

**Q.** `C/C=C(C)/C=C/C=C/[C@H](OC)[C@@H](C)[C@@H](OC)[C@@H](C)CCc1oc2c(O)c(OC)cc(OC)c2c(=O)c1C` [Stigmatellin] was tested. Which “Selectivity (P. falciparum vs H. sapiens)” value ([3]; ratio of OCA IC50 HEK 293 / P. falciparum K1) did it give?
**A.** The value was 0.015.

**Q.** Which IC50 ([1]; Table 4) does the source give for `O=C(Nc1ccccc1O)c1ccc(S(=O)(=O)c2ccc(Cl)cc2)cc1` [TCMDC-123689] here?
**A.** Its IC50 is 8190 ± 1260 nM.

**Q.** And the IC50 [4]?
**A.** Its IC50 is over 10 µM.

**Q.** What about the “% Inhibition Cytbc1 biochemical assay, 5 μM” value [2] of the same molecule?
**A.** Its value is 99.84 ± 2.22%.

**Q.** What does the source list for `c1ccc(CCNc2ncnc3c2[nH]c2ccccc23)cc1` [TCMDC-124578]?
**A.** IC50 ([1]; Table 4): 292 ± 249 nM; IC50 [4]: 7.52 ± 0.5 µM; % Inhibition Cytbc1 biochemical assay, 5 μM [2]: 100.30 ± 2.14%

**Q.** Which results are given for `COc1ccc(NS(=O)(=O)c2cc(NC(=O)Cn3ccccc3=O)ccc2N2CCCCC2)cc1` [TCMDC-124874]?
**A.** IC50 ([1]; Table 4): 760 ± 109 nM; IC50 [4]: > 10 µM; % Inhibition Cytbc1 biochemical assay, 5 μM [2]: 59.97 ± 8.70%

**Q.** For `Cc1cccc(-c2nn(-c3ccccc3)cc2C(=O)Nc2nnc(C)o2)c1` [TCMDC-125039], which IC50 ([1]; Table 4) is on record?
**A.** Its IC50 is 1100 ± 131 nM.

**Q.** What about the IC50 [4] of the same molecule?
**A.** Its IC50 is over 10 µM.

**Q.** And the “% Inhibition Cytbc1 biochemical assay, 5 μM” value [2]?
**A.** The value was 77.11 ± 12.20%.

**Q.** `Cc1cccc2nc(-c3ccc(-c4ccc(CN5CC(C)OC(C)C5)cc4)cc3)[nH]c12.O=C(O)C(F)(F)F` (stereo not shown) [TCMDC-133823] was tested. Which IC50 ([1]; Table 4) did it give?
**A.** Its IC50 is 2200 ± 1950 nM.

**Q.** What about the IC50 [4] of the same molecule?
**A.** Its IC50 is over 10 µM.

**Q.** What about the “% Inhibition Cytbc1 biochemical assay, 5 μM” value [2] of the same molecule?
**A.** Its value is 89.93 ± 9.67%.

**Q.** With `COCCN(C)c1ccc(C(=O)Nc2ccccc2)cc1NS(=O)(=O)Cc1ccccc1.O=C(O)C(F)(F)F` [TCMDC-134575] as the molecule, how does the IC50 ([1]; Table 4) read?
**A.** Its IC50 is 514 ± 225 nM.

**Q.** And the IC50 [4]?
**A.** Its IC50 is over 10 µM.

**Q.** What about the “% Inhibition Cytbc1 biochemical assay, 5 μM” value [2] of the same molecule?
**A.** Its value is 91.48 ± 7.57%.

**Q.** Which IC50 ([1]; Table 4) does the source give for `Clc1cccc(Nc2ccc3c(N4CCCCC4)ncnc3n2)c1` [TCMDC-134937] here?
**A.** The IC50 was 1320 ± 860 nM.

**Q.** And the IC50 [4]?
**A.** The IC50 was over 10 µM.

**Q.** What about the “% Inhibition Cytbc1 biochemical assay, 5 μM” value [2] of the same molecule?
**A.** The value was 50.34 ± 6.78%.
